# Data from patent publication US20010051628A1, “METHODS TO MODULATE THE RESISTANCE OF CELLS TO APOPTOSIS MEDIATED BY MUTANT EPIDERMAL GROWTH FACTOR RECEPTORS” (priority 1998, published 2001).
# How the values were obtained:
# Bcl-XL = assay: Western blot of Bcl-XL expression; type: cell-based, human
# Description: Total cell lysates were prepared at the various time points indicated. For each sample, 20 μg of lysate protein was used. Results were reproduced in three independent experiments. […] For each sample, 20 μg of lysate was used. […] For control, the vehicle (DMSO) was used. Apoptosis rate determined by TUNEL assays of triplicate cover slips. […] Cell lysates were prepared in RIPA buffer (16), equal protein per sample was separated on SDS-polyacrylamide gels, and transferred to nitrocellulose membranes (BioRad, Hercules, Calif.). Proteins on the membranes were probed with antibodies to Bcl-XL (Transduction, Lexington, Ky.), poly(ADP-ribose) polymerase (PARP) (C2-10; […]
# U87MG.ΔEGFR cells [1] = assay: In situ TUNEL labeling of apoptotic DNA fragmentation; type: cell-based, human
# Description: Cells were seeded on cover slips, treated with 5 μg/ml of CDDP for 2 days, and then TUNEL assays were performed. The percent of TUNEL-positive cells induced by CDDP treatment was assessed by counting more than 400 cells per coverslip. □, U87MG; ▪, U87MG.ΔEGFR;_, U87MG.DK;_, U87MG.wtEGFR.
# For each sample, 20 μg of lysate was used. […] For control, the vehicle (DMSO) was used. Apoptosis rate determined by TUNEL assays of triplicate cover slips.
# Apoptotic cells were detected by use of terminal deoxynucleotidyl transferase mediated nick end labeling (TUNEL) of apoptotic DNA strand breaks as described (16). Apoptotic index was calculated as a ratio of apoptotic cell number to total tumor cell number within the areas by counting more than 400 cells in each coverslip.
# caspase-3-like proteases = assay: Caspase activity assay in lysates of treated cells (Ac-DEVD-pNA substrate); type: cell-based, human; conditions: for CDDP-induced caspase activation on co-treatment with tyrphostin: data not shown; for caspase-3-like protease activity relative to basal activity: 48 hours after CDDP 5 μg/ml
# Description: (§1) (A) Total cell lysates were prepared 2 days after treatment with 5 μg/ml CDDP. Samples were assayed for protease activity using the peptide substrate, Ac-DEVD-pNA. […] Cells were also treated with the plasma membrane-soluble caspase inhibitor Z-Asp-CH2DCB (200 μM) prior to and during CDDP treatment. □, U87MG; ▪, U87MG.ΔEGFR;_, U87MG.DK;_, U87MG.wtEGFR. […] (B) Proteolytic cleavage of PARP after CDDP treatment. For each sample, 20 μg total clarified protein lysate was loaded on to SDS-PAGE gels, electrophoresed, transferred to membranes and probed with anti-PARP monoclonal antibodies. FL, full-length; CF, cleaved fragment.
# Cells were lysed in lysis buffer (ApoAlert, Clontech, Palo Alto, Calif.) for 15 min on ice, followed by centrifugation. Protease assays included 89 μl of reaction buffer (100 mM HEPES, pH 7.5, 20% v/v glycerol, 6 mM dithiothreitol, and 0.5 mM EDTA), I μl of 10 mM acetyl-Asp-Glu-Val-Asp-p-nitroanilide (Ac-DEVD-pNA) in DMSO (California Peptide Research, Inc., Napa, Calif.), and 10 μl of equal protein cell lysate. Samples were incubated at 37° C., and enzyme-catalyzed release of p-nitroanilide (pNA) was monitored at […] for 1 h in a microtiter plate reader (Molecular Devices Inc., Sunnyvale, Calif.). Aliquots of cell lysates diluted into the reaction buffer were first incubated with 10 μM caspase-3-like protease inhibitor, Ac-Asp-Glu-Val-Asp-aldehyde (Ac-DEVD-CHO) (Bachem, Torrance, Calif.), at 37° C. for 30 min. Values for picomoles of pNA released were calculated from those observed in OD405 values using a standard curve of pNA. One unit of protease activity was defined as the amount of enzyme required to release 1 pmol pNA/min at 37° C. For in vivo caspase inhibition studies, cells were cultured in the presence of peptide caspase inhibitor Z-Asp-CH2-DCB (Bachem).
# PARP = assay: Western blot of proteolytic cleavage of PARP; type: cell-based, human
# Description: as §1
# Cell lysates were prepared in RIPA buffer (16), equal protein per sample was separated on SDS-polyacrylamide gels, and transferred to nitrocellulose membranes (BioRad, Hercules, Calif.). Proteins on the membranes were probed with antibodies to Bcl-XL (Transduction, Lexington, Ky.), poly(ADP-ribose) polymerase (PARP) (C2-10; Enzyme System Products, Dublin, Calif.), EGFR (C13) (15), or phosphotyrosine (4G10, Upstate Biotechnology, Lake Placid, N.Y.), and detected by chemiluminescence (Amersham).
# U87MG.ΔEGFR cells [2] = assay: Cell survival (colony forming efficiency) assay; type: cell-based, human; conditions: drug 1 hr, then 10 to 12 days in fresh medium; colony count
# Description: Western blot analysis of expression (lower) and auto-phosphorylation (upper) of wt EGFR (♦) and ΔEGFR (●) in U87MG, U87MG.ΔEGFR, U87MG.DK and U87MG.wtEGFR cells grown in media containing 10% serum. Low and similar levels of endogenous wt EGFR expression was also detected in U87MG, U87MG.ΔEGFR and U87MG.DK at longer exposures (data not shown). […] Cells were plated in triplicate 60-mm dishes and treated with media containing various concentrations of CDDP for 1 hr, followed by incubation with fresh media for 10 to 12 days. Numbers of colonies were counted after Giemsa staining. Results were reproduced in four independent experiments; bars, SID.
# To determine the level of resistance of the cells to chemotherapeutic agents, colony forming efficiency assays were performed as described (20). Briefly, 400 or 700 cells were seeded in triplicate into dishes having a 60-mm diameter. On the next day cells were treated with various concentrations of CDDP for 1 hr or Taxol or vincristine for 2 hr, and then further incubated for 10 to 12 days in the fresh medium. The cells were fixed in methanol, stained with Giemsa solution (Sigma) and the number of colonies containing greater than 50 cells were counted. The survival fraction was calculated as the ratio of the colony-forming efficiency of drug-treated and untreated cells. […]
# protein kinase C (PKC) = conditions: cited from earlier work
# [3] = tested on: human glioma cell lines A172, U563 or U251; conditions: cited from earlier work
# glioma = conditions: pre-treatment with LTC4; cited from earlier work
# glioma cell = conditions: cited from earlier work; for serum-driven cell growth: dose-dependent
# U-87 glioma xenografts = conditions: continuous intraperitoneal infusion; cited from earlier work
# [4] = tested on: malignant glioma cell lines; conditions: cited from earlier work
# EGFR = conditions: monolayers at the IC20 doses; cited from earlier work
# [5] = tested on: human glioblastoma cell lines; conditions: read-out: IC20 for monolayer growth inhibition; cited from earlier work
# [6] = tested on: human glioblastoma spheroids; conditions: cited from earlier work
# [7] = tested on: nitric oxide synthase (NOS); conditions: C6 glial cells; cited from earlier work
# caspase-3-like protease = assay: Inhibition of caspase activity by pre-incubating cell lysates with inhibitor; type: biochemical, human; conditions: 10 μM, lysates pre-incubated at 37° C. for 30 min
# Description: as §1
# Cells were lysed in lysis buffer (ApoAlert, Clontech, Palo Alto, Calif.) for 15 min on ice, followed by centrifugation. Protease assays included 89 μl of reaction buffer (100 mM HEPES, pH 7.5, 20% v/v glycerol, 6 mM dithiothreitol, and 0.5 mM EDTA), I μl of 10 mM acetyl-Asp-Glu-Val-Asp-p-nitroanilide (Ac-DEVD-pNA) in DMSO (California Peptide Research, Inc., Napa, Calif.), and 10 μl of equal protein cell lysate. Samples were incubated at 37° C., and enzyme-catalyzed release of p-nitroanilide (pNA) was monitored at […] for 1 h in a microtiter plate reader (Molecular Devices Inc., Sunnyvale, Calif.). […] Values for picomoles of pNA released were calculated from those observed in OD405 values using a standard curve of pNA. […]
# tumors = conditions: EGF plus cisplatin versus cisplatin alone; cited from earlier work
molecule,measurement,setting,value
COc1cc2ncnc(Nc3cccc(Cl)c3)c2cc1OC [AG1478],Bcl-XL expression,"Bcl-XL; U87MG.ΔEGFR cells, 15 μM",marked reduction
same,"apoptosis induction, tyrphostin in combination with CDDP","U87MG.ΔEGFR cells [1]; U87MG.ΔEGFR cells, CDDP 5 μg/ml for 2 days, concentrations per FIG. 6B",significant apoptosis in a dose-dependent and synergistic manner
same,CDDP-induced caspase activation on co-treatment with tyrphostin,caspase-3-like proteases; U87MG.ΔEGFR cells,enhanced
COc1cc2ncnc(Nc3cccc(Br)c3)c2cc1OC [AG1517],CDDP-induced caspase activation on co-treatment with tyrphostin,caspase-3-like proteases; U87MG.ΔEGFR cells,enhanced
"[NH2][Pt]([NH2])([Cl])[Cl] [CDDP, cisplatin]",Bcl-XL expression level during CDDP treatment,"Bcl-XL; U87MG, U87MG.DK and U87MG.wtEGFR cells, continuous exposure for more than 24 hr",equally decreased
same,Bcl-XL expression level during CDDP treatment,Bcl-XL; U87MG.ΔEGFR cells,remained unchanged
same,cleavage of 116-kDa full-length PARP into 85-kDa fragment,"PARP; U87MG, U87MG.DK and U87MG.wtEGFR cells, 24 hr after CDDP",observed
same,cleavage of 116-kDa full-length PARP into 85-kDa fragment,"PARP; U87MG.ΔEGFR cells, 48 hr after CDDP",trace levels
same,"proportion of TUNEL-positive cells, U87MG.ΔEGFR lower than U87MG, U87MG.DK or U87MG.wtEGFR","U87MG.ΔEGFR cells [1]; CDDP 5 μg/ml for 2 days, p<0.001",more than 5 fold lower
same,IC50 value (survival) of U87MG.ΔEGFR cells relative to parental U87MG cells,U87MG.ΔEGFR cells [2],4.3 fold
same,caspase-3-like protease activity relative to basal activity,caspase-3-like proteases; U87MG parental cells,5.3 fold
same,caspase-3-like protease activity relative to basal activity,caspase-3-like proteases; U87MG.DK cells,4.7 fold
same,caspase-3-like protease activity relative to basal activity,caspase-3-like proteases; U87MG.wtEGFR cells,6.4 fold
same,caspase-3-like protease activity relative to basal activity,caspase-3-like proteases; U87MG.ΔEGFR cells,2.0 fold
CO[C@@H]1[C@H](N(C)C(=O)c2ccccc2)C[C@H]2O[C@]1(C)n1c3ccccc3c3c4c(c5c6ccccc6n2c5c31)C(=O)NC4 [CGP 41 251],PKC activity,protein kinase C (PKC),reduced
same,proliferation rate,[3],reduced
CCCCC/C=C\C\C=C/C=C/C=C/[C@@H](SC[C@H](NC(=O)CC[C@H](N)C(=O)O)C(=O)NCC(=O)O)[C@@H](O)CCCC(=O)O [LTC4],survival of CDDP-treated animals,glioma,increased survival to a statistically significant degree
COc1ccc(/C=C(\C#N)c2cccnc2)cc1OC [RG 13022],EGF- and PDGF-induced DNA synthesis,glioma cell; 50 μmol/L,completely blocked
same,"DNA synthesis induced by growth factors (EGF, PDGF; serum for the tyrphostins)",glioma cell,dose-dependently inhibit
same,cytotoxicity to the cells,glioma cell,no cytotoxic side effects
same,selectivity in blocking either EGF or PDGF signaling,glioma cell,no selectivity
same,serum-driven cell growth,glioma cell,inhibit
N#CC(C#N)=Cc1cc(O)c(O)c(O)c1 [RG 50875],"DNA synthesis induced by growth factors (EGF, PDGF; serum for the tyrphostins)",glioma cell,dose-dependently inhibit
same,cytotoxicity to the cells,glioma cell,no cytotoxic side effects
same,selectivity in blocking either EGF or PDGF signaling,glioma cell,no selectivity
same,serum-driven cell growth,glioma cell,inhibit
"CN[C@@H]1C[C@H]2O[C@@](C)([C@@H]1OC)n1c3ccccc3c3c4c(c5c6ccccc6n2c5c31)C(=O)N[C@H]4O [UCN-01, seven-hydroxystaurosporine]",activity against U-87 glioma xenografts,U-87 glioma xenografts,significant activity
same,"combination with 1,3-bis(2-chloroethyl)-1-nitrosourea, inhibition of glioma cell proliferation",[4],additive effects
same,"combination with cisplatin, inhibition of glioma cell proliferation",[4],synergistic effects
O=C(O)C[C@H](NC(=O)OCc1ccccc1)C(=O)COC(=O)c1c(Cl)cccc1Cl [Z-Asp-CH2-DCB],effect on CDDP-induced apoptosis,"U87MG.ΔEGFR cells [1]; cells treated with CDDP in the presence of the inhibitor, data not shown",significant inhibition
same,caspase-3-like protease activity of cells treated with CDDP in the presence of the inhibitor,"caspase-3-like proteases; 200 μM prior to and during CDDP treatment, U87MG and sublines",did not exhibit an increase
O=c1c(-c2ccc(O)cc2)coc2cc(O)cc(O)c12 [genistein],EGFR-associated tyrosine phosphorylation,EGFR,no change
same,IC20,[5],10 µM
same,PKC activity,protein kinase C (PKC),dose dependently reduced
same,proliferation rate,[3],inhibited
same,infiltration,[6]; genistein at 10 μmol/L,completely inhibited
same,"DNA synthesis induced by growth factors (EGF, PDGF; serum for the tyrphostins)",glioma cell,inhibited
same,cytotoxicity to the cells,glioma cell,cytotoxic
CO[C@H]1[C@@H](OC)C[C@H](C)[C@@H](OC)C2=CC(=O)C=C(NC(=O)/C(C)=C/C=C\[C@H](OC)[C@@H](OC(N)=O)/C(C)=C/[C@@H]1C)C2=O [herbimycin A],NOS induced by LPS and IFN-gamma,[7],suppressed
N#CC(C#N)=Cc1cc(O)c(O)c(O)c1 [tyrphostin A25],EGFR-associated tyrosine phosphorylation,EGFR,no change
same,IC20,[5],3 µM
same,invasion,"[6]; tyrphostin A25 at 3 μmol/L, third cell line",reduced invasion
Ac-Asp-Glu-Val-Asp-aldehyde (Ac-DEVD-aldehyde) [Ac-DEVD-CHO],effect on increased caspase activities of lysates from CDDP-treated cells,caspase-3-like protease,completely abolished
"EGF: epidermal growth factor administered with cisplatin (NSDSECPLSHDGYCLHDGVCMYIEALDKYACNCVVGYIGERCQYRDLKWWELR; Epidermal growth factor; UniProt P01133 971-1023, looked up)",cisplatin-induced tumor cell kill (final tumor volume),tumors,significantly enhance
